Where two headings read alike, the source gives them in different places. Each block holds one compound with its values, some of them ahead of it.
Target: T1, Mcl-1 (UniProt P97287+Q07820)
T1 construct: amino acid residues 152-189 of mouse Mcl-1 fused with amino acid residues 209-327 of; 8 x His (N); TEV site (N); made in house; host or cells: E. coli BL21(DE3)pLysS
Experiment: Competitive fluorescence anisotropy (FA) assay, FITC-NoxaB displacement from Mcl-1
Type: binding
Method: Fmoc, 9-fluorenylmethylcarbony. IC50 determined by non -linear regression of at least three experiments.
4. Fluorescence Anisotropy Binding Assay
Fluorescence anisotropy was carried out on a BMG Labtech clariostar microplate reader with a fluorescence anisotropy optic measuring at 482/530 nm. Low -binding, Corning 96 -well black plates were used and all reagents used in the assay were biological grade and purchased from Sigma Aldrich and Novabioche m. All solutions were made using MilliQ water .
Anisotropy values were automatically calculated using the following formula […]
Where r = anisotropy, l a = parallel emission light, lb = perpendicular emission light and I = total […]
KD was determined using GraphPad Prism Version 6.0 software, using the One Site – Total binding […]
Where Bmax is the maximum specific binding, KD is the equilibrium binding constant, and NS is the slope of nonspecific binding. […]
IC50 was determined using GraphPad Prism Version 6.0 software, using a four-parameter logistic model, according to precedent from Ottmann and co-workers.[5] Errors are the transformed greater extreme of the standard error. […]
For binding each well contained 10 µL of Mcl -1 protein in 10-fold dilutions (0.37 pM to 3.7 µM) […]
protein were dissolved in PBS: 0.05% Tween -20 buffer at pH 7.4. Reagents were incubated for 30 min at room temperature prior to reading. Bubbles were removed and 8 data points were generated.
Figure S 1: Fluorescence Anisotropy direct titration.
To confirm reproducibility of
(µ) and standard deviations (σ) were inputted into the following equation:
Inhibition screens were carried out using 10 nM Mcl -1, 5 nM fluorescently-tagged peptide and 100 µM of inhibitor. Compounds were dissolved in DMSO. […]
control (DMSO) were used to define the mini mum and maximum values and ensure the assay was […]
(1 picture or pasted object on this page, not shown here) […]
Bubbles were removed and 8 data points were generated. […]

[1] = Table S2, binding inhibition of FITC-NoxaB to Mcl-1, small molecules not tested against cell lines, at least three experiments, errors = transformed greater extreme of standard error, SEM, read-out: FA IC50
[2] = Table S2, binding inhibition of FITC-NoxaB to Mcl-1, small molecules not tested against cell lines, at least three experiments, errors = transformed greater extreme of standard error, read-out: FA IC50
[3] = Table 1, inhibition of binding of 5 nM FITC-NoxaB to 10 nM Mcl-1, PBS, 0.05% Tween-20, pH 7.4, non-linear regression of at least three experiments, errors = transformed greater extreme of standard error, [b] <100 means <100 μM and >10 μM, accurate value not determined, read-out: FA IC50
[4] = Table S1, binding inhibition of FITC-NoxaB to Mcl-1, * less than 100 µM and greater than 10 µM, accurate IC50 not determined, read-out: FA IC50
[5] = Table 1, inhibition of binding of 5 nM FITC-NoxaB to 10 nM Mcl-1, PBS, 0.05% Tween-20, pH 7.4, non-linear regression of at least three experiments, errors = transformed greater extreme of standard error, [b] <100 means <100 μM and >10 μM, accurate value not determined, SEM, read-out: FA IC50

T1 sequence (P97287 152-189 limits assumed): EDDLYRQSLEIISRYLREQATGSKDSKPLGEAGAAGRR
T1 sequence (Q07820 209-327 limits assumed): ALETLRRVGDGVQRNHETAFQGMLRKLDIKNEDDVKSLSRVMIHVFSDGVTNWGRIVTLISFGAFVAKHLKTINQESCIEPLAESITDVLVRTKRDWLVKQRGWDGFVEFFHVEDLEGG

IC50 [1]: 1.32 ± 1.1 µM
Compound: CCOc1ccc(-c2cn(CC(=O)O)nn2)cc1 [Compound S13]

IC50 [1]: 1.37 ± 0.938 µM
Compound: Fc1ccccc1Cn1cc(-c2ccccc2Cl)nn1 [Compound S14]

IC50 [1]: 3.31 ± 0.488 µM
Compound: CCC(C)c1cn(Cc2ccccc2)nn1 (centres unmarked) [Compound S15]

IC50 [1]: 5.28 ± 1.69 µM
Compound: COC(=O)[C@H](Cc1cn(CC(=O)O)nn1)NC(=O)OCC1c2ccccc2-c2ccccc21 [Compound S16]

IC50 [2]: > 100 µM
Compound: COC(=O)[C@H](Cc1cn(Cc2ccc(Br)cc2)nn1)NC(=O)OCC1c2ccccc2-c2ccccc21 [Compound S17]

IC50 [2]: > 100 µM
Compound: CCCCCCCc1cn(C23CC4CC(CC(C4)C2)C3)nn1 [Compound S18]

IC50 [2]: > 100 µM
Compound: CCCCCCCc1cn(Cc2ccccc2F)nn1 [Compound S19]

IC50 [4]: < 100 µM
Compound: AAQLRRIGD [Compound S1]

IC50 [4]: < 100 µM
Compound: KVNLRQKLLN [Compound S2]

Continued, compound first:

Compound: AAQLRRIGD [Compound 5]
IC50 [3]: < 100 µM

Compound: KVNLRQKLLN [Compound 10]
IC50 [5]: 1.2 µM

Compound: KVNLRQKLLN [Compound 12]
IC50 [5]: 4.3 ± 0.9 µM

Compound: KVNLRQKLLN [Compound 15]
IC50 [3]: < 100 µM

Compound: extended NoxaB peptide: the two NoxaB peptide fragments clicked together by CuAAC (AAQLRRIGDXKVNLRQKLLN; N-terminal acetyl)
IC50 (5 nM FITC-NoxaB, 10 nM Mcl-1, read-out: IC50 (competitive FA assay, Mcl-1)): 7.23 ± 0.88 µM

From paper PMC5577515, “Peptide‐Directed Binding for the Discovery of Modulators of α‐Helix‐Mediated Protein–Protein Interactions: Proof‐of‐Concept Studies with the Apoptosis Regulator Mcl‐1” (Angewandte Chemie (International Ed. in English), 2017)
